Experimental data taken from US20070161592A1, “Method of treating fear” (priority 2005, published 2007).

Assays:
[1] = tested on: pyramidal neurons in layer II/III of ACC slices; assay: LTP induced by pairing training, whole-cell patch-clamp recordings in ACC slices; format: cell-based, mouse
Method: Experiments were performed in a recording chamber on the stage of an Axioskop 2FS microscope with infrared DIC optics for visualizing whole-cell patch clamp recordings. EPSCs were recorded from layer II-III neurons using an Axon 200B amplifier (Axon Instruments, CA) and stimulations were delivered using a bipolar tungsten stimulating electrode placed in layer V of the ACC. In hippocampal slices, EPSCs were evoked by stimulating the Schaffer collateral-commissural pathway. EPSCs were induced by repetitive stimulations at 0.02 Hz and neurons were voltage clamped at −70 mV. […] The first protocol involved paired presynaptic 80 pulses at 2 Hz with postsynaptic depolarization at +30 mV (referred to as pairing training). The second involved paired 3 presynaptic stimuli that caused 3 EPSPs (10 ms ahead) with 3 postsynaptic APs at 30 Hz, paired 15 times every 5 s (named as EPSPs-APs protocol). The third involved theta-burst stimulation (5 trains of burst with 4 pulses at 100 Hz, at 200 ms interval; repeated 4 times at intervals of 10 s; named as TBS). The NMDAR-mediated component of EPSCs was pharmacologically isolated in Mg^2+-free ACSF containing: CNQX (20 μM), glycine (1 μM) and picrotoxin (100 μM). […] Neurons were voltage clamped at −60 mV and NMDARs-mediated EPSCs were evoked at 0.05 Hz. Picrotoxin (100 μM) was always present to block GABAA receptor-mediated inhibitory synaptic currents. The access resistance was 15-30 MΩ and was monitored throughout the experiment. […] Results are expressed as means±SEM. Statistical comparisons were performed using the Student t-test.
Whole-cell patch-clamp recordings were conducted in visually identified pyramidal neurons in layer II/III of ACC slices. Pyramidal neurons were identified by injecting depolarized currents into neurons to induce action potentials. […] Pyramidal neurons were also identified based on the pyramid shape of their somata by putting Lucifer yellow into the intracellular solution (FIG. 1A).

NMDAR-mediated signaling = settings: intra-hippocampal injections; cited from earlier work
NR1/NR2B = settings: cited from earlier work
NR1/NR2A = settings: cited from earlier work
[2] = tested on: NMDAR-mediated currents in the hippocampus; assay: NMDAR-mediated EPSCs in hippocampal CA1 neurons; format: cell-based, mouse; settings: for depression of total NMDAR-mediated currents: hippocampal CA1 neurons
Method: (§1) Coronal brain slices ([…]) from 6-8-week-old C57BL/6 mice, containing ACC or hippocampus, were prepared using standard methods (Wei et al., 2001). Slices were transferred to a submerged recovery chamber containing oxygenated (95% O2 and 5% CO2) artificial cerebrospinal fluid (ACSF) (in mM: 124 NaCl, 4.4 KCl, 2 CaCl2, 1 MgSO4, 25 NaHCO3, 1 NaH2PO4, 10 glucose) at room temperature for at least 1 h.
(§2) Experiments were performed in a recording chamber on the stage of an Axioskop 2FS microscope with infrared DIC optics for visualizing whole-cell patch clamp recordings. EPSCs were recorded from layer II-III neurons using an Axon 200B amplifier (Axon Instruments, CA) and stimulations were delivered using a bipolar tungsten stimulating electrode placed in layer V of the ACC. In hippocampal slices, EPSCs were evoked by stimulating the Schaffer collateral-commissural pathway. EPSCs were induced by repetitive stimulations at 0.02 Hz and neurons were voltage clamped at −70 mV. The recording pipettes (3-5 MΩ) were filled with solution containing (mM) 145 K-gluconate, 5 NaCl, 1 MgCl2, 0.2 EGTA, 10 HEPES, 2 Mg-ATP, and 0.1 Na3-GTP (adjusted to pH 7.2 with KOH). After obtaining stable EPSCs for 10 min, three kinds of LTP induction paradigms were used within 12 min after establishing the whole-cell configuration to prevent wash out effect on LTP induction (Tsvetkov et al., 2002). The first protocol involved paired presynaptic 80 pulses at 2 Hz with postsynaptic depolarization at +30 mV (referred to as pairing training). The second involved paired 3 presynaptic stimuli that caused 3 EPSPs (10 ms ahead) with 3 postsynaptic APs at 30 Hz, paired 15 times every 5 s (named as EPSPs-APs protocol). The third involved theta-burst stimulation (5 trains of burst with 4 pulses at 100 Hz, at 200 ms interval; repeated 4 times at intervals of 10 s; named as TBS). The NMDAR-mediated component of EPSCs was pharmacologically isolated in Mg^2+-free ACSF containing: CNQX (20 μM), glycine (1 μM) and picrotoxin (100 μM). The patch electrodes contained (in mM) 102 cesium gluconate, 5 TEA-chloride, 3.7 NaCl, 11 BAPTA, 0.2 EGTA, 20 HEPES, 2 MgATP, 0.3 NaGTP, and 5 QX-314 chloride (adjusted to pH 7.2 with CsOH). Neurons were voltage clamped at −60 mV and NMDARs-mediated EPSCs were evoked at 0.05 Hz. Picrotoxin (100 μM) was always present to block GABAA receptor-mediated inhibitory synaptic currents. The access resistance was 15-30 MΩ and was monitored throughout the experiment. Data were discarded if access resistance changed by more than 15% during an experiment. Results are expressed as means±SEM. Statistical comparisons were performed using the Student t-test.
(§3) One possible mechanism is that NR2B-containing receptors may contribute more to total NMDA currents in ACC synapses than in hippocampal synapses. […] Application of 0.1 μM or 0.4 μM NVP-AAM077 depressed total NMDAR-mediated currents by 59.0±4.3% (n=5) and 63.2±1.7% (n=6) in the ACC respectively (FIG. 5). On the other hand, application of 0.3 μM or 3 μM Ro25-6981 attenuated total NMDAR-mediated currents by 18.0±1.9% (n=5) and 18.1±3.4% (n=7) in the ACC respectively, showing that 0.3 μM Ro25-6981 was sufficient to block the NR2B-mediated currents (FIG. 5). This experiment was repeated in hippocampal CA1 neurons. […] However, unlike in the ACC, application of 0.3 μM Ro25-6981 alone potentiated, rather than blocked, total NMDAR-mediated currents by 51.3±16.4% in the hippocampus (FIG. 5).
The same experiment was repeated in the hippocampus.

adult ACC neurons [3] = assay: LTP induced by EPSPs-APs protocol in ACC slices; format: cell-based, mouse; settings: 0.4 μM
Method: as §1
as §2, with “t-test. […]” for “t-test.”

[4] = tested on: NMDAR-mediated currents in the ACC; assay: NMDAR-mediated EPSCs in the ACC; format: cell-based, mouse
Method: as §1, §2, §3
The relative percentages of NR2A- and NR2B-mediated currents were determined by applying specific antagonists, NVP-AAM077 (0.4 μM) and Ro25-6981 (0.3 μM). The concentrations used here were based on the results from FIG. 5 and a recent study performed in the hippocampus (Liu et al., 2004). Application of NVP-AAMO77 depressed total NMDAR-mediated currents by 63.2±1.7% and the addition of Ro25-6981 to the same neuron further reduced currents by 13.7±1.4% (n=6) in the ACC (FIG. 6). […]

adult ACC neurons [5] = assay: LTP induced by theta-burst stimulation (TBS) in ACC slices; format: cell-based, mouse; settings: 0.4 μM
Method: as §1
as §2, with “t-test. […]” for “t-test.”

[6] = FIG. 1E/F, BAPTA in the intracellular solution

With O=C(O)CN(CC(=O)O)c1ccccc1OCCOc1ccccc1N(CC(=O)O)CC(=O)O [BAPTA] the “synaptic responses after pairing training (LTP), % of baseline” value (from here on “synaptic responses … % of baseline”) ([1]; 11 mM BAPTA in the pipette solution) was 106.1±10.3% and the “effect on LTP induced by pairing training” value (“effect … by pairing training” for short) [1, 6] was “completely blocked”.

In the case of NC(CCCP(=O)(O)O)C(=O)O (centres unmarked) [AP-5], the “synaptic responses … % of baseline” value ([1]; AP-5 50 μM) is reported as 97.8±5.7% and the “effect … by pairing training” value [1, 6] is reported as “completely blocked”.

For C[C@]12N[C@H](Cc3ccccc31)c1ccccc12 [MK-801], the contextual freezing (NMDAR-mediated signaling) is given as “reduced contextual freezing”.

In the case of CC(C(O)c1ccc(O)cc1)N1CCC(Cc2ccccc2)CC1 (centres unmarked) [ifenprodil], the “synaptic responses … % of baseline” value ([1]; 3 μM) is listed as 128.1±7.4%, the “effect … by pairing training” value ([1]; 3 μM, FIG. 3) is listed as “partially depressed” and the IC50 (NR1/NR2B) is listed as 340 nM. The IC50 (NR1/NR2A) was 146000 nM.

For C[C@H](NC(c1cccc2[nH]c(=O)c(=O)[nH]c12)P(=O)(O)O)c1ccc(Br)cc1 (some centres unmarked) [NVP-AAM077], the “synaptic responses … % of baseline” value ([1]; 0.1 μM) was 134.9±6.9%, the “effect … by pairing training” value ([1]; 0.1 μM, FIG. 3) was “partially depressed” and the “synaptic responses … % of baseline” value ([1]; 0.4 μM) was 131.6±11.9%. The “effect … by pairing training” value ([1]; 0.4 μM, FIG. 3) was “partially depressed”, the “depression of total NMDAR-mediated currents” value (shortened to “depression”) ([2]; 0.1 μM) was 54.4±3.2% and the “depression” value ([2]; 0.4 μM) was 73.1±1.7%. For the same compound, the “effect on total NMDAR-mediated currents” value ([2]; hippocampus, bath application, FIG. 5) was “depressed”, the IC50 (NR1/NR2B) was 1800 nM and the IC50 (NR1/NR2A) was 14 nM. The “potentiation after EPSPs-APs protocol, % of baseline” value (adult ACC neurons [3]) was 102.0±11.5%, the “effect on LTP induced by EPSPs-APs protocol” value (adult ACC neurons [3]; FIG. 4C) was “blocked” and the “depression” value ([4]; 0.1 μM) was 59.0±4.3%. For the same compound, the “depression” value ([4]; 0.4 μM NVP-AAM077 added after first applying 0.3 μM Ro25-6981) was 64.2±3.0%, the “depression” value ([4]; 0.4 μM, applied alone or first) was 63.2±1.7% and the “effect on total NMDAR-mediated currents” value ([4]; bath application of different doses, FIG. 5) was “depressed”. The “LTP after TBS, % of baseline” value (adult ACC neurons [5]) was 97.0±13.4% and the “effect on LTP induced by TBS” value (adult ACC neurons [5]; FIG. 4F) was “blocked”.
